Reference: PubChem BioAssay AID2060607 (Molecular Pharmacology Branch, DTP, NCI, 2025)

Tested on: 876862-298-R-J1-PDC complex spheroids, viability % test/control
Assay: Anticancer human tumor 876862-298-R-J1-PDC patient-derived endometrial carcinoma cell line growth inhibition [CLK]
Details: for IC50: curve of first compound; for viability, T/C: stronger effect = lower value
In short: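 Multi-cell-type spheroids combined patient-derived tumor cells with HUVEC endothelial cells and human mesenchymal stem cells. Paired agents were dosed in half-log steps down from about clinical Cmax, or from 10 microM where Cmax was unknown.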
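Note: spheroids exposed to drugs for 7 days before readout.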
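Throughout, for viability, T/C: 100% = DMSO vehicle control wells.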

COc1ccc([C@@H](O)c2cc(-c3ncnc4cc(N5CCOCC5)ccc34)c(F)cc2Cl)nn1 + CNC(=O)c1ccc(Nc2nc(OC3CCCC3)c3c(-c4ccc5nc(C)oc5c4)c[nH]c3n2)c(OC)c1 was tested, and the IC50 (second compound 0.0316 µM) was 3010 nM, the IC50 (second compound 0.1 µM) was 81.2 nM and the IC50 (second compound 0.316 µM) was < 31.6 nM. For the same molecule, the IC50 (second compound 1 µM) was < 31.6 nM, the IC50 (second compound 3.16 µM) was < 31.6 nM and the IC50 (second compound 10 µM) was < 31.6 nM. The viability, T/C (second compound 0.0316 µM, first compound 0.0316 µM) was 72%, the viability, T/C (second compound 0.0316 µM, first compound 0.1 µM) was 84.4% and the viability, T/C (second compound 0.0316 µM, first compound 0.316 µM) was 69.5%. It also gave a viability, T/C (second compound 0.0316 µM, first compound 1 µM) of 66.1%, a viability, T/C (second compound 0.0316 µM, first compound 3.16 µM) of 49.4% and a viability, T/C (second compound 0.0316 µM, first compound 10 µM) of 30.5%. It also gave a viability, T/C (second compound 0.1 µM, first compound 0.0316 µM) of 50.6%, a viability, T/C (second compound 0.1 µM, first compound 0.1 µM) of 49.3% and a viability, T/C (second compound 0.1 µM, first compound 0.316 µM) of 48.7%. For the same molecule, the viability, T/C (second compound 0.1 µM, first compound 1 µM) was 38.8%, the viability, T/C (second compound 0.1 µM, first compound 3.16 µM) was 34% and the viability, T/C (second compound 0.1 µM, first compound 10 µM) was 26.8%. It also gave a viability, T/C (second compound 0.316 µM, first compound 0.0316 µM) of 47%, a viability, T/C (second compound 0.316 µM, first compound 0.1 µM) of 39.7% and a viability, T/C (second compound 0.316 µM, first compound 0.316 µM) of 47.7%. For the same molecule, the viability, T/C (second compound 0.316 µM, first compound 1 µM) was 33.2%, the viability, T/C (second compound 0.316 µM, first compound 3.16 µM) was 27.1% and the viability, T/C (second compound 0.316 µM, first compound 10 µM) was 21.6%. It also gave a viability, T/C (second compound 1 µM, first compound 0.0316 µM) of 31.9%, a viability, T/C (second compound 1 µM, first compound 0.1 µM) of 28.8% and a viability, T/C (second compound 1 µM, first compound 0.316 µM) of 30.4%. The viability, T/C (second compound 1 µM, first compound 1 µM) was 26.8%, the viability, T/C (second compound 1 µM, first compound 3.16 µM) was 21.1% and the viability, T/C (second compound 1 µM, first compound 10 µM) was 15.5%. It also gave a viability, T/C (second compound 3.16 µM, first compound 0.0316 µM) of 25%, a viability, T/C (second compound 3.16 µM, first compound 0.1 µM) of 21.2% and a viability, T/C (second compound 3.16 µM, first compound 0.316 µM) of 18.5%. For the same molecule, the viability, T/C (second compound 3.16 µM, first compound 1 µM) was 20.3%, the viability, T/C (second compound 3.16 µM, first compound 3.16 µM) was 17.2% and the viability, T/C (second compound 3.16 µM, first compound 10 µM) was 11.9%. The viability, T/C (second compound 10 µM, first compound 0.0316 µM) was 23.2%, the viability, T/C (second compound 10 µM, first compound 0.1 µM) was 19.2% and the viability, T/C (second compound 10 µM, first compound 0.316 µM) was 17.9%. For the same molecule, the viability, T/C (second compound 10 µM, first compound 1 µM) was 16.3%, the viability, T/C (second compound 10 µM, first compound 3.16 µM) was 17% and the viability, T/C (second compound 10 µM, first compound 10 µM) was 10.2%.
